Data from ChEMBL document CHEMBL3132769, “Fragment growing to retain or alter the selectivity of anchored kinase hinge-binding fragments” (Medchemcomm, 2014).

What was measured:
[1] = target: Serine/threonine-protein kinase Chk2 (Homo sapiens) (UniProt O96017); experiment: Inhibition of human full length CHK2 expressed in baculovirus assessed as substrate phosphorylation using fluorescence-labelled peptides as substrate at 95 uM after 90 mins by microfluidic peptide phosphorylation assay
[2] = target: Ribosomal protein S6 kinase alpha-2 (Homo sapiens) (UniProt Q15349); experiment: Inhibition of human full length RSK3 expressed in baculovirus assessed as substrate phosphorylation using fluorescence-labelled peptides as substrate at 0.2 uM after 90 mins by microfluidic peptide phosphorylation assay
Sequence of Ribosomal protein S6 kinase alpha-2 (Homo sapiens) (Q15349 whole entry): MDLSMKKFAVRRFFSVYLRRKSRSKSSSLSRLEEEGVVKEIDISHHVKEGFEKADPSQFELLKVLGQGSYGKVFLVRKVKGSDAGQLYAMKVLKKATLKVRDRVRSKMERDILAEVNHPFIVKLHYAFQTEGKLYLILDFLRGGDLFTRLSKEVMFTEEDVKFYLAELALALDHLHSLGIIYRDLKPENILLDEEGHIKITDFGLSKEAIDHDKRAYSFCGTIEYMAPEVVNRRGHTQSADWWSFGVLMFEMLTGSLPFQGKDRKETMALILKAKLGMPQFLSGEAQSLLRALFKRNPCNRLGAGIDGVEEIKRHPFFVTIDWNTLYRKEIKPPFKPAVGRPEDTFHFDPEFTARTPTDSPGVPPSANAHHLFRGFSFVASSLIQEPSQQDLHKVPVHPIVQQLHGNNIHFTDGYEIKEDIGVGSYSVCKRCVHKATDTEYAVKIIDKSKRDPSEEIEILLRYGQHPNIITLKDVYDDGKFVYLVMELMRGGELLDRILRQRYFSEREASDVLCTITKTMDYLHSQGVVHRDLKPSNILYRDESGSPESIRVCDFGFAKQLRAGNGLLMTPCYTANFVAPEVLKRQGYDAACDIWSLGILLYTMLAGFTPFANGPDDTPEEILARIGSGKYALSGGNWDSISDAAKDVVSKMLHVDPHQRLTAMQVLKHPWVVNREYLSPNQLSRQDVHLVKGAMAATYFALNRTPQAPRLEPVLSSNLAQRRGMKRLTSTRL

[3] = target: Serine/threonine-protein kinase Chk2 (Homo sapiens) (UniProt O96017); experiment: Inhibition of human full length CHK2 expressed in baculovirus assessed as substrate phosphorylation using fluorescence-labelled peptides as substrate at 0.2 uM after 90 mins by microfluidic peptide phosphorylation assay
[4] = target: Casein kinase I isoform delta (Homo sapiens) (UniProt P48730); experiment: Inhibition of human CK1D catalytic domain expressed in Escherichia coli cell assessed as substrate phosphorylation using fluorescence-labelled peptides as substrate at 8 uM after 90 mins by microfluidic peptide phosphorylation assay
Sequence of Casein kinase I isoform delta (Homo sapiens) (P48730 whole entry, looked up, the tested form may be a part, canonical isoform): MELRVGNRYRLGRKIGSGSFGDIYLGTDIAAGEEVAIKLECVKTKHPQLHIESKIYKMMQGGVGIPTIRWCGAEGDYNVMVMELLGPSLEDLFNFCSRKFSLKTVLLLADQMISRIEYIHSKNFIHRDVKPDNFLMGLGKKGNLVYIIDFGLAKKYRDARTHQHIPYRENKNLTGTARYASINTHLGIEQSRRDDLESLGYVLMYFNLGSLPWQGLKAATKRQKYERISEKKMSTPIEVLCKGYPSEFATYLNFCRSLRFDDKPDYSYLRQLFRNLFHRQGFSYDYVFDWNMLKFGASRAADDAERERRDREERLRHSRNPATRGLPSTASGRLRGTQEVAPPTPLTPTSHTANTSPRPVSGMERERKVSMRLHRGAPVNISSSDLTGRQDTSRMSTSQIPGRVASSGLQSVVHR

[5] = target: Platelet-derived growth factor receptor alpha (Homo sapiens) (UniProt P16234); experiment: Inhibition of human PDGFR alpha catalytic domain expressed in baculovirus assessed as substrate phosphorylation using fluorescence-labelled peptides as substrate at 8 uM after 90 mins by microfluidic peptide phosphorylation assay
Sequence of Platelet-derived growth factor receptor alpha (Homo sapiens) (P16234 whole entry, the tested form may be a part): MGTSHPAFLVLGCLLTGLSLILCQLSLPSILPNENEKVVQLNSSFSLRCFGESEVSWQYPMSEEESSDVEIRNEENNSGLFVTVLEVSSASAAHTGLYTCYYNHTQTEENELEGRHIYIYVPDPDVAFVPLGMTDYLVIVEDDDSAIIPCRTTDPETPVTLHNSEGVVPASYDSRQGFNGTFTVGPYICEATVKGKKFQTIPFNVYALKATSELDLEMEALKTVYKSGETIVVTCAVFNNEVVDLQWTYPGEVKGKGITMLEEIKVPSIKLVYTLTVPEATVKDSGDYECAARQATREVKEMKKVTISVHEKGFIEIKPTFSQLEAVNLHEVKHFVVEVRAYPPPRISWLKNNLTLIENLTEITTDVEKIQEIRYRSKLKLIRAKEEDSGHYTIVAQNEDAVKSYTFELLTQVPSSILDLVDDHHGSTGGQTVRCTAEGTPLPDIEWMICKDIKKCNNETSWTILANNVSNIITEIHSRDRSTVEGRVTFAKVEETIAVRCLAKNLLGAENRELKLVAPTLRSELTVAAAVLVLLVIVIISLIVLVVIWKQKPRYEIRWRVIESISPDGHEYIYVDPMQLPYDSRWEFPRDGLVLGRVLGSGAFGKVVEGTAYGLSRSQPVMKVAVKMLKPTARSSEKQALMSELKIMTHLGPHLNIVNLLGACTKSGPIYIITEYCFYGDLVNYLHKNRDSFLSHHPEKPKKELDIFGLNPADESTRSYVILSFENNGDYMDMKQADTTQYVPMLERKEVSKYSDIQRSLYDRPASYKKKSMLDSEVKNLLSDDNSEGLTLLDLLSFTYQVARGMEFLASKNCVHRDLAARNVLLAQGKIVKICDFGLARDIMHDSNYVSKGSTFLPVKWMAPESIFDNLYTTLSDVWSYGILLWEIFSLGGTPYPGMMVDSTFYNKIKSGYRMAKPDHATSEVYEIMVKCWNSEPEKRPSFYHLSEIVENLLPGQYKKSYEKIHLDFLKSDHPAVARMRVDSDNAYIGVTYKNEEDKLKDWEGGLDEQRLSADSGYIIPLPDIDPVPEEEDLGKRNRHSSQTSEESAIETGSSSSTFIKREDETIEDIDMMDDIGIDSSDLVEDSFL

[6] = target: Glycogen synthase kinase-3 beta (Homo sapiens) (UniProt P49841); experiment: Inhibition of human full length GSK-3 beta expressed in baculovirus assessed as substrate phosphorylation using fluorescence-labelled peptides as substrate at 8 uM after 90 mins by microfluidic peptide phosphorylation assay
[7] = target: T1, Testis-specific serine/threonine-protein kinase 2 (Homo sapiens) (UniProt Q96PF2); experiment: Inhibition of human full length TSSK2 expressed in baculovirus assessed as substrate phosphorylation using fluorescence-labelled peptides as substrate at 2 uM after 90 mins by microfluidic peptide phosphorylation assay
T1 sequence (whole entry): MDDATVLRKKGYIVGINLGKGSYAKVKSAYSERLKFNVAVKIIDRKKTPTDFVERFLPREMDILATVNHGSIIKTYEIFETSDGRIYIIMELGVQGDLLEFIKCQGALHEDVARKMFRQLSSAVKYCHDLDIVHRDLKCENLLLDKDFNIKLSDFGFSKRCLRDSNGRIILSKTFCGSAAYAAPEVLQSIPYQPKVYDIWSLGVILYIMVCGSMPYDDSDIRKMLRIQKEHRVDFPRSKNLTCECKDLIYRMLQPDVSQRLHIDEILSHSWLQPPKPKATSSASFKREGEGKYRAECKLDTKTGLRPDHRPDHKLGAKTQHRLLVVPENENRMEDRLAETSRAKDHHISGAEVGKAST

[8] = target: T2, cGMP-dependent protein kinase 1 (Homo sapiens) (UniProt Q13976); experiment: Inhibition of human full length PKG-1a expressed in baculovirus assessed as substrate phosphorylation using fluorescence-labelled peptides as substrate at 2 uM after 90 mins by microfluidic peptide phosphorylation assay
T2 sequence (whole entry): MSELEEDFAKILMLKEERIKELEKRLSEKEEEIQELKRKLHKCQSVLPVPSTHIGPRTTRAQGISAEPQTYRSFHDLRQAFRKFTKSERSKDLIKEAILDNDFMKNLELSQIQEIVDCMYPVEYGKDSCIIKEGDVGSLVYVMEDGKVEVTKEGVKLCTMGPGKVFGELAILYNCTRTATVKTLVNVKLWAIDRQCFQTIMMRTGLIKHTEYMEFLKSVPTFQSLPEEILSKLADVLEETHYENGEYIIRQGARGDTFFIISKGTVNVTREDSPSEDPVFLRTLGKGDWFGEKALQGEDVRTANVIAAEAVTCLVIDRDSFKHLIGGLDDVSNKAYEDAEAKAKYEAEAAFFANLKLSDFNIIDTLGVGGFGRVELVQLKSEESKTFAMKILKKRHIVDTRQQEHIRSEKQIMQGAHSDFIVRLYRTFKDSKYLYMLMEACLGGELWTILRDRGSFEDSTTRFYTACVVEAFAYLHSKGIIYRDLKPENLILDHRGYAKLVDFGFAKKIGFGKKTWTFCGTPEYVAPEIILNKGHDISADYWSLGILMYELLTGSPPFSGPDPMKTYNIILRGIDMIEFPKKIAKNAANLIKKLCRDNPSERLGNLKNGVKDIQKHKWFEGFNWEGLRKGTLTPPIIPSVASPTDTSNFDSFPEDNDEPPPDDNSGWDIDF

[9] = target: MAP kinase-activated protein kinase 3 (Homo sapiens) (UniProt Q16644); experiment: Inhibition of human full length MAPKAPK3 expressed in Escherichia coli cell assessed as substrate phosphorylation using fluorescence-labelled peptides as substrate at 2 uM after 90 mins by microfluidic peptide phosphorylation assay
[10] = target: Tyrosine-protein kinase BTK (Homo sapiens) (UniProt Q06187); experiment: Inhibition of human full length BTK expressed in baculovirus assessed as substrate phosphorylation using fluorescence-labelled peptides as substrate at 1000 uM after 90 mins by microfluidic peptide phosphorylation assay
Sequence of Tyrosine-protein kinase BTK (Homo sapiens) (Q06187 whole entry): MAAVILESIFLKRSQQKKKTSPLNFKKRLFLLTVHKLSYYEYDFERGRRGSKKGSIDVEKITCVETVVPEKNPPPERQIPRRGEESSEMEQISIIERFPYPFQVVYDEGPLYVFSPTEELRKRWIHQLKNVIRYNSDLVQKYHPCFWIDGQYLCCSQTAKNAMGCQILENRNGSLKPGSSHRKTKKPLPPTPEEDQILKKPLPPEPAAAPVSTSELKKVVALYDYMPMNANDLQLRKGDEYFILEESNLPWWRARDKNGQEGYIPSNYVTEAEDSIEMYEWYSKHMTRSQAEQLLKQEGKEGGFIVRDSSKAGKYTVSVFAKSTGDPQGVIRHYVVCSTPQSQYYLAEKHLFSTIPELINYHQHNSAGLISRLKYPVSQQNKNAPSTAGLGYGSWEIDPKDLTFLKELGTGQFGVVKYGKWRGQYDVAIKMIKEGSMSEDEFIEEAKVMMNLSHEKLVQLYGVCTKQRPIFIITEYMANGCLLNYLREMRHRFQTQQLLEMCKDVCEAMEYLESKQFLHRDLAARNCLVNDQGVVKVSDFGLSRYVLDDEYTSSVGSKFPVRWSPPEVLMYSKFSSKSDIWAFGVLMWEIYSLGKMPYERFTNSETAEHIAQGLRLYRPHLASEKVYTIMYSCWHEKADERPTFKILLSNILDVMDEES

[11] = target: T3, Serine/threonine-protein kinase Nek2 (Homo sapiens) (UniProt P51955); experiment: Inhibition of human full length NEK2 expressed in baculovirus assessed as substrate phosphorylation using fluorescence-labelled peptides as substrate at 1000 uM after 90 mins by microfluidic peptide phosphorylation assay
T3 sequence (whole entry): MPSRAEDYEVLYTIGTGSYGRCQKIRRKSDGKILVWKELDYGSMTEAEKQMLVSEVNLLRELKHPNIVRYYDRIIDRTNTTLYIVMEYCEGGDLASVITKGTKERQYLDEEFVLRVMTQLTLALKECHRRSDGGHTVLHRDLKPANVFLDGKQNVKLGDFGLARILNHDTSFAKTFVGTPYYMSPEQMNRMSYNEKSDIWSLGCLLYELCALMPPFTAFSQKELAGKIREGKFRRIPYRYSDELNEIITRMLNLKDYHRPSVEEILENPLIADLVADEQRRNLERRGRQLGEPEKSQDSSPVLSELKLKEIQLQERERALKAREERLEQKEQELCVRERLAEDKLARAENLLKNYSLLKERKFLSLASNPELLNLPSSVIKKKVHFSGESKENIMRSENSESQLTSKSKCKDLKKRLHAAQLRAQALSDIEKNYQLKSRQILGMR

[12] = target: Dual specificity tyrosine-phosphorylation-regulated kinase 1A (Rattus norvegicus) (UniProt Q63470); experiment: Inhibition of rat full length DYRK1a expressed in Escherichia coli cell assessed as substrate phosphorylation using fluorescence-labelled peptides as substrate at […] after 90 mins by microfluidic peptide phosphorylation assay
[13] = target: Vascular endothelial growth factor receptor 2 (Homo sapiens) (UniProt P35968); experiment: Inhibition of human KDR cytoplasmic domain expressed in baculovirus assessed as substrate phosphorylation using fluorescence-labelled peptides as substrate at 420 uM after 90 mins by microfluidic peptide phosphorylation assay
Sequence of Vascular endothelial growth factor receptor 2 (Homo sapiens) (P35968 whole entry, the tested form may be a part): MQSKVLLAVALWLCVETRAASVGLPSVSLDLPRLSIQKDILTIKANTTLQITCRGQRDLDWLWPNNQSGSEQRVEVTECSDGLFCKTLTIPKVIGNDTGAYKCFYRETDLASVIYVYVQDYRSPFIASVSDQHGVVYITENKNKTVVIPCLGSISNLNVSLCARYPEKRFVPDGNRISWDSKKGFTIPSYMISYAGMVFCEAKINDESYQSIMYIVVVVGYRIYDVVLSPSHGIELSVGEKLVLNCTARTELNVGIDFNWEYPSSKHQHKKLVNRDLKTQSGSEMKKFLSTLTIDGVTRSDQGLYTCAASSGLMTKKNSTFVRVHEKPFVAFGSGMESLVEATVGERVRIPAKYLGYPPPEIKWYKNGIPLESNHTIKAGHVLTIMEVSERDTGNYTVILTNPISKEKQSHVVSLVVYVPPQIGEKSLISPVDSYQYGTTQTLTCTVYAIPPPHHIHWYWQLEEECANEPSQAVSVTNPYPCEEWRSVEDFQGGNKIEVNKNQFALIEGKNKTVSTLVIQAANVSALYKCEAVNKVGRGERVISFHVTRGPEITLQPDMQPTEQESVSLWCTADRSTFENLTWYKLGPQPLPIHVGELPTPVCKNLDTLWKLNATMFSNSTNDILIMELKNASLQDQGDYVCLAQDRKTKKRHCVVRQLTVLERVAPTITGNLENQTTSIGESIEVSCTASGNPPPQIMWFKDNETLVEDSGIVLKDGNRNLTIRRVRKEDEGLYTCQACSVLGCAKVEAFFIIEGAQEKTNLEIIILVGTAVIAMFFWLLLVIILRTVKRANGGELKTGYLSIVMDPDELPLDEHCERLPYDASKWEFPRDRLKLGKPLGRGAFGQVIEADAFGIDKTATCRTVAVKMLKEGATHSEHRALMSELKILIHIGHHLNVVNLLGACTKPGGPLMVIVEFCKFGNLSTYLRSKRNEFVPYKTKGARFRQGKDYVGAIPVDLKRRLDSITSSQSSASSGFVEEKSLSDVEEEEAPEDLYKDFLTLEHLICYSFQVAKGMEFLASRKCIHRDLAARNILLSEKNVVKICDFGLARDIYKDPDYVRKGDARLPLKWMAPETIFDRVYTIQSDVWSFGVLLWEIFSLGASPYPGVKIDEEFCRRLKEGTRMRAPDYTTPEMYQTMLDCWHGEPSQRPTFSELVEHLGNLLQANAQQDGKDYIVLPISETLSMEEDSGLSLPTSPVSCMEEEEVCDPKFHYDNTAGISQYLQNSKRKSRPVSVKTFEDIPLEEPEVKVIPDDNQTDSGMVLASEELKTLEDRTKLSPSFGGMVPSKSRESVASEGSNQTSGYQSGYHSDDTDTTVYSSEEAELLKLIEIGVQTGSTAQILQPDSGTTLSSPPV

[14] = target: Insulin receptor (Homo sapiens) (UniProt P06213); experiment: Inhibition of human INSR catalytic domain expressed in baculovirus assessed as substrate phosphorylation using fluorescence-labelled peptides as substrate at 9 uM after 90 mins by microfluidic peptide phosphorylation assay

Sequence of Serine/threonine-protein kinase Chk2 (Homo sapiens) (O96017 whole entry, the tested form may be a part, canonical isoform): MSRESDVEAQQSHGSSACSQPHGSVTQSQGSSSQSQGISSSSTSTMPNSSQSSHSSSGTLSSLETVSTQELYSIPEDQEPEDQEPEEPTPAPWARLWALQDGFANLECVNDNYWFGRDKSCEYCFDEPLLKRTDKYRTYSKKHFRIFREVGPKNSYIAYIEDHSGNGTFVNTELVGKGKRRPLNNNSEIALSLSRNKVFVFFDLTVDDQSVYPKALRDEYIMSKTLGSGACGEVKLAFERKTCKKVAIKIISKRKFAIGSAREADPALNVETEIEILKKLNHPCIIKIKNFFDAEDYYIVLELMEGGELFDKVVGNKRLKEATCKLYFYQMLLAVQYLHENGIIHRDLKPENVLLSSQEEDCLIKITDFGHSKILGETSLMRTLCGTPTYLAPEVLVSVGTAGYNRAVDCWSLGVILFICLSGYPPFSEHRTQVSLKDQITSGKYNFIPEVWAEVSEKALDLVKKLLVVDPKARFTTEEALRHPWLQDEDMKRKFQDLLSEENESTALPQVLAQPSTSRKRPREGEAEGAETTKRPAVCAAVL

For `NCCc1ccc(-c2ncnc3[nH]cnc23)cc1`, the inhibition [1] was 74%.

`Clc1ccc(C2(c3ccc(-c4ncnc5[nH]cnc45)cc3)CCNCC2)cc1` showed an inhibition [2] of 40% and an inhibition [3] of 59%.

For `NCC1CCN(c2ncnc3[nH]ccc23)CC1`, the inhibition [4] was 25.5%, the inhibition [5] was 0% and the inhibition [6] was 0%.

Compound `NC1CCN(c2ncnc3[nH]ccc23)CC1` has an inhibition [7] of 6.5%, an inhibition [8] of 10% and an inhibition [9] of 45.5%.

For `c1cnc2[nH]ccc2c1`, the inhibition [10] was 19% and the inhibition [11] was 2.5%.

`COC(=O)c1cnc(Nc2cnc(C#N)cn2)cc1NCC1CCNCC1` gave an inhibition [12] of 1.5%.

In the case of `c1nc(N2CCOCC2)c2nc[nH]c2n1`, the inhibition [13] is reported as 95.5%.

In the case of `NCC1CN(c2ncnc3[nH]c4cnccc4c23)CCO1` (centres undefined), the inhibition [14] is reported as 2.5%.
